Reference: PubChem BioAssay (NCI)
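Interpolation was linear, between the two tested concentrations surrounding the appropriate level; five concentrations were tested over 48 hours in 96-well plates. Definition used: TGI = concentration required for complete inhibition of growth.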

What was measured:
Test in all cases: NCI tumour cell line growth inhibition, 48 h
DU-145 prostate = test system: DU-145 prostate
RXF 393 renal = test system: RXF 393 renal
EKVX NSCLC = test system: EKVX NSCLC
NCI-H460 lung = test system: NCI-H460 lung
BT-549 breast = test system: BT-549 breast
MDA-MB-231 breast = test system: MDA-MB-231 breast
U251 CNS = test system: U251 CNS
SF-295 CNS = test system: SF-295 CNS

SMILES	TGI (DU-145 prostate) [µM]	TGI (RXF 393 renal) [µM]	TGI (EKVX NSCLC) [µM]	TGI (NCI-H460 lung) [µM]	TGI (BT-549 breast) [µM]	TGI (MDA-MB-231 breast) [µM]	TGI (U251 CNS) [µM]	TGI (SF-295 CNS) [µM]
c1ccc2c(-c3csc(-c4c[nH]c5ccccc45)n3)c[nH]c2c1	> 100	> 100	> 100	> 100	> 100	> 100	> 100	> 89.1
BrCc1ccc(CBr)c2c1-c1c(CBr)ccc3ccc(CBr)c-2c13	> 100		> 100	> 100	> 100	> 100	> 100	> 100
CCCC(=O)OCOC(=O)N(C)N=Nc1ccc(C(=O)OCC)cc1	64.1	33.5	> 100	71.8	76.9	> 100	84.1	53.8
CCOP(=O)(OCC)C(Cc1ccc(Cl)cc1)NS(=O)(=O)c1ccc(C)cc1 (configuration not stated)	> 100	> 100	> 100	> 100	> 100	> 100	> 100	> 100
CC1CC(N2CCOCC2)=Nc2ccccc2N1Cc1ccccc1 (configuration not stated)	> 100	63.4	> 100	> 100	> 100	> 100	> 100	> 100
Cc1ccc(S(=O)(=O)NC(=O)Nc2cc(Cl)c(S(N)(=O)=O)cc2S(N)(=O)=O)cc1	> 100	> 100	> 100		> 100	> 100	> 100	> 100
C/C(=N\NC(=S)Nc1ccc([N+](=O)[O-])cc1)c1nc2ncccc2[nH]1	> 100		3.2	3.31	2.35	> 100	1.84	10.2
Nc1c(Cl)cc(-c2nc3ccccc3s2)cc1Cl	> 100	> 100	> 100	> 100	> 100	> 100	> 100	> 100
FC(F)(F)c1cccnc1Sc1nc2ccccc2s1	> 100	> 100	> 100	> 100	> 100	> 100	> 100	> 100
CCC(=O)C(CCN1CCC(N2C(=O)C(CCC#N)c3ccccc32)CC1)(c1ccccc1)c1ccccc1 (configuration not stated)	26.5	16.2		26.9	26.2	20.8	27.8	26.1
Nc1ccc(-c2nc3ccc(F)cc3s2)cc1I	> 100	> 67.9	> 100	> 100	> 100	> 100	> 100	> 100
O=[N+]([O-])C(=C/c1cccc2ccccc12)/C(=C\c1cccc2ccccc12)[N+](=O)[O-]	8.77	3.67	11.6	7.92	4.26	5.14	4.32	8.19
Cc1cccc(CNc2ncnc3[nH]ncc23)c1	> 100	> 100	> 100	> 100	> 100	> 100	> 100	> 100
CCCCN(C)C(=O)C1=C(C)NC(C)=C(C(=O)N(C)CCCC)C1	> 100	> 100	> 100	> 100	> 100	> 100	> 100	> 100
C=CCNC(=O)CN(CC(=O)O)C1CCCCC1N(CC(=O)O)CC(=O)O (configuration not stated)	> 100	> 100		> 100	> 100	> 100	> 100	> 100
C[C@H]1C[C@H]2[C@@H]3CCC4=CC(=O)C=C[C@]4(C)C3=CC[C@]2(C)[C@@]1(O)C(=O)CO	> 100	> 100	> 100	> 100		> 100	> 100	> 100
COc1ccc(NC(=O)C(=O)Cc2nc3ccc(C(=O)c4ccccc4)cc3[nH]c2=O)c([N+](=O)[O-])c1	> 100	> 100	> 100	> 100	> 100	> 100	> 100	> 100
C=C1C2CCC3(CCC4C5(C)CCCC4(C=[N+](CCO)C5)C3C2)C1O (configuration not stated)	> 100	> 100	> 100	> 100	> 100	> 100	> 100	> 100
O=c1cc(CNC2CC3CCC2C3)[nH]c(=O)[nH]1 (configuration not stated)	> 100	> 100	> 100	> 100	> 100	> 100	> 100	> 100
O=c1n(-c2ccccc2)c(=O)n2c(-c3ccccc3)c(-c3ccccc3)n12		> 100	> 100	> 100	> 100	> 100	> 100	> 100
COC(=O)[C@@]1(NC(=O)C(CC(=O)OC(C)(C)C)NC(=O)OC(C)(C)C)C[C@H]1C (some centres not stated)	> 100	> 100	> 100	> 100	> 100	> 100	> 100	> 100
C=C(C)CCC1CC=[N+]([O-])OC1C(C)(C)C (configuration not stated)	> 100	> 100	> 100	> 100		66.8	> 100	> 100
O/N=C1/CCCc2nonc21	> 100	> 100	> 100	> 100		> 100	> 100	> 100
S=C(N/N=C/c1ccccn1)N1CCCCCC1	> 100	5.01	4.04	0.211	22.6			> 100
CC(=O)O[C@@H]1[C@H]2[C@@H](OC(=O)c3ccccc3)[C@@H](C)C[C@]2(O)[C@H](OC(C)=O)[C@@]2(C)[C@@H]3C[C@@](C)(OC(C)=O)C[C@@H](OC(C)=O)[C@@]3(OC(C)=O)C[C@@]12C	> 10	> 10	> 10	> 10	> 10	> 10	> 10	> 10
Cc1ccc(S(=O)(=O)N2CC(CCN)c3ccccc32)cc1 (configuration not stated)	31.3	12.6	82.4	> 64.8	21.9	29.9	18.4	33.5
